Data from ChEMBL document CHEMBL1129840, “The synthesis and SAR of new 4-(N-alkyl-N-phenyl)amino-6,7-dimethoxyquinazolines and 4-(N-alkyl-N-phenyl)aminopyrazolo[3,4-d]pyrimidines, inhibitors of CSF-1R tyrosine kinase activity” (Bioorg Med Chem Lett, 1997).

How the values were obtained:
[1] = target: Macrophage colony-stimulating factor 1 receptor (Homo sapiens, UniProt P07333); assay: Antagonism towards Colony stimulating factor 1 receptor (CSF-1R); assay type: functional
[2] = target: Epidermal growth factor receptor (Homo sapiens, UniProt P00533); assay: Antagonism towards Epidermal growth factor receptor
[3] = target: Platelet-derived growth factor receptor (Homo sapiens, UniProt P09619+P16234); assay: Inhibition of platelet-derived growth factor receptor (PDGF-R)
[4] = target: Tyrosine-protein kinase Lck (Homo sapiens, UniProt P06239); assay: Inhibition of p56 lck tyrosine kinase (inactive)
Chain of Tyrosine-protein kinase Lck (P06239 whole entry): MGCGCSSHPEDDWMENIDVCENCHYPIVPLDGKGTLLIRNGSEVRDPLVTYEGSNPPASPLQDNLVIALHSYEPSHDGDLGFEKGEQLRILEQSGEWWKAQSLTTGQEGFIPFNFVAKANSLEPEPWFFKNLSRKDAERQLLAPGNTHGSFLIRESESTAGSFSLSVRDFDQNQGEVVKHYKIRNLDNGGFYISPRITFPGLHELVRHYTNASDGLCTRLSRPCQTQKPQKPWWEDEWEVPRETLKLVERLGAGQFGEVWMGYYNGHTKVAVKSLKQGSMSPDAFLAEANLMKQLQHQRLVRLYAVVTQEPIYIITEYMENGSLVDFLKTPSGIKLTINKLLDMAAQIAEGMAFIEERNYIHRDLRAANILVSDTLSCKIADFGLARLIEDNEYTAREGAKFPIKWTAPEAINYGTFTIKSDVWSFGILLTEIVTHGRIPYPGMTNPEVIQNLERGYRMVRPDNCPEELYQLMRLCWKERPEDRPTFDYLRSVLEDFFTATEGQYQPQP

Chain of Macrophage colony-stimulating factor 1 receptor (P07333 whole entry): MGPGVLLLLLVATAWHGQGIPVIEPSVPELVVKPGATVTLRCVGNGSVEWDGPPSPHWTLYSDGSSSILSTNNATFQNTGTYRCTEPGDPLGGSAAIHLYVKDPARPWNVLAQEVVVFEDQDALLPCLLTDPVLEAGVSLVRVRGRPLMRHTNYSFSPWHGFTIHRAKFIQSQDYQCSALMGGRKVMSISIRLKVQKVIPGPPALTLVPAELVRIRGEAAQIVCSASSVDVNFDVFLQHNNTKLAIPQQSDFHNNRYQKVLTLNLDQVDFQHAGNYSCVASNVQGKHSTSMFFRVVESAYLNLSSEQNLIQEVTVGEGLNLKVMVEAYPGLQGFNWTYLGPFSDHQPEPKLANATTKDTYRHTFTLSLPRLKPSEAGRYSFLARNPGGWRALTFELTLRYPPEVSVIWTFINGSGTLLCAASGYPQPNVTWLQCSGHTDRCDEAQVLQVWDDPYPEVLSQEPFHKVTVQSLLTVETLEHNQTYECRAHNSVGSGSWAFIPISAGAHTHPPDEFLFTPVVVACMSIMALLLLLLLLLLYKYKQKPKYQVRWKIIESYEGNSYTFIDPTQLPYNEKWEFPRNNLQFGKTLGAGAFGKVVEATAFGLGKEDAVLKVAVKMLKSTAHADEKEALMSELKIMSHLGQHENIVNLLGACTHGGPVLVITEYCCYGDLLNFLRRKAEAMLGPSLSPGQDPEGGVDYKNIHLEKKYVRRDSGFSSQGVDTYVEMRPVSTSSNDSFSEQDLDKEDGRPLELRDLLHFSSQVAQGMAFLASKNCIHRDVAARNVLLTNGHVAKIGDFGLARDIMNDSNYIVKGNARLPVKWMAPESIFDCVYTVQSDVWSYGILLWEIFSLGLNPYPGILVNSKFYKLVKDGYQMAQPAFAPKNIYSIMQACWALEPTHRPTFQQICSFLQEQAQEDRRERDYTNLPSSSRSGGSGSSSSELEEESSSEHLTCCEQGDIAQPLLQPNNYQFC
Chain of Epidermal growth factor receptor (P00533 whole entry): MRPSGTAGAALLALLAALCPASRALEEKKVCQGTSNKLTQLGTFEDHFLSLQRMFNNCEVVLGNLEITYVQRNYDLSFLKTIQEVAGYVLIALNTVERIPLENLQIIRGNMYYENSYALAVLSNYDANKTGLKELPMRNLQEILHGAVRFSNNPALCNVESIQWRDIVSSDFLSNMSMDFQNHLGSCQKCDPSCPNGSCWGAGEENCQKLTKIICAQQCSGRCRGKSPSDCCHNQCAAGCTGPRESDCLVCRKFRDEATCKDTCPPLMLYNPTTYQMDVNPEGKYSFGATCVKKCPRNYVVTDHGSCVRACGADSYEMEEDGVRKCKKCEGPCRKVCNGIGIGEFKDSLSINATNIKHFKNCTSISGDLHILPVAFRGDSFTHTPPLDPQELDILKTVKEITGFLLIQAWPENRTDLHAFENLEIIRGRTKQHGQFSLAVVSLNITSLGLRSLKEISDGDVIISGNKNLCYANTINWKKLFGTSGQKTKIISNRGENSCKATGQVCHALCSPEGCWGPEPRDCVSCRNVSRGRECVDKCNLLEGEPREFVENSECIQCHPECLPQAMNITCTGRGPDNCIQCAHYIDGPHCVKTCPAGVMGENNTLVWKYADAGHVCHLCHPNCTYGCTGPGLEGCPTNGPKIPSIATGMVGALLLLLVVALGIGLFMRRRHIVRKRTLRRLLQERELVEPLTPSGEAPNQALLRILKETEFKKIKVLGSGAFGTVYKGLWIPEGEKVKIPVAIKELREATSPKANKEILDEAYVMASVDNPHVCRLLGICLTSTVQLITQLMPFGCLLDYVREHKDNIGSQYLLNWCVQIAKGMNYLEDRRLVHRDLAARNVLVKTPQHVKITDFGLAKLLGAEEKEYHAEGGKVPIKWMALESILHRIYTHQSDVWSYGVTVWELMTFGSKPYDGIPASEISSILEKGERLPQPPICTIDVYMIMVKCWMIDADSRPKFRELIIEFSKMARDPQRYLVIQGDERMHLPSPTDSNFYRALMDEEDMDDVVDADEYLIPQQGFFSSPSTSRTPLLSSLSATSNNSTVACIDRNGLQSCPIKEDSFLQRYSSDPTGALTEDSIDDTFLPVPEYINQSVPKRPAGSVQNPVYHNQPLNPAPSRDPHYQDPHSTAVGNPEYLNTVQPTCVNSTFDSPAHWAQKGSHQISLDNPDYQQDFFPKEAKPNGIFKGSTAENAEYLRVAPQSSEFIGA

Row | SMILES | IC50 [1] | IC50 [2] | IC50 [3] | IC50 [4]
1 | CN(c1ccccc1)c1[nH]cnc2nncc1-2 | 0.6 µM | > 50 µM | – | –
2 | Cc1cc(C)c2ncnc(N(C)c3ccccc3)c2c1 | > 20 µM | > 20 µM | – | –
3 | COc1cc2ncnc(N(C)c3cccc(C(F)(F)F)c3)c2cc1OC | 0.5 µM | 30 µM | – | –
4 | COc1ccc2ncnc(N(C)c3ccccc3)c2c1 | 20 µM | > 20 µM | – | –
5 | COc1cc2ncnc(Nc3cc(OC)c(OC)c(OC)c3)c2cc1OC | > 100 µM | – | 20 µM | –
6 | COc1cc2ncnc(N(C)c3ccccc3)c2cc1OC | – | 4 µM | 15 µM | > 100 µM
7 | COc1cc2nc(Cl)nc(N(C)c3ccccc3)c2cc1OC | > 50 µM | > 50 µM | – | –
8 | COc1cc2c(N(C)c3ccccc3)ncnc2c(OC)c1OC | > 20 µM | > 20 µM | – | –
9 | Cc1cccc(N(C)c2ncnc3cc(C)c(C)cc23)c1 | 1.6 µM | 6.5 µM | – | –
10 | CN(c1ccccc1)c1ncnc2ccccc12 | > 20 µM | > 50 µM | – | –
11 | COc1cc2ncnc(N(C)c3ccc(Cl)cc3)c2cc1OC | 2.1 µM | 3 µM | – | –
12 | COc1cc2ncnc(N(C)c3cccc(C)c3)c2cc1OC | 0.18 µM | 12 µM | – | –
13 | CN(c1ccccc1)c1ncnc2ccc(Cl)cc12 | 5 µM | > 20 µM | – | –
14 | COc1cc2ncnc(N3CCc4ccccc43)c2cc1OC | 5 µM | 3 µM | – | –
15 | COc1nc(N(C)c2ccccc2)c2cc(OC)c(OC)cc2n1 | > 50 µM | > 50 µM | – | –
16 | COc1cc2ncnc(Nc3ccccc3)c2cc1OC | > 50 µM | 0.05 µM | – | –
17 | COc1cc2ncnc(N(C)c3cccc(Cl)c3)c2cc1OC | 1.5 µM | 0.1 µM | – | –
18 | CCN(c1ccccc1)c1ncnc2cc(OC)c(OC)cc12 | – | 5.5 µM | – | –
19 | CN(c1ccccc1)c1ncnc2[nH]cnc12 | 4 µM | 2 µM | – | –
20 | COc1cc2ncnc(N(C)c3ccc(C)cc3)c2cc1OC | 2 µM | 4 µM | – | –
21 | Cc1cccc(N(C)c2ncnc3n[nH]cc23)c1 | 0.18 µM | > 50 µM | – | –
